# Measured values taken from PMC6079455, “Discovery of Novel Caeridins from the Skin Secretion of the Australian White's Tree Frog, Litoria caerulea” (International Journal of Genomics, 2018).
# Ends that are not written are not given here.
# How the values were obtained:
# [1] = test system: rat urinary bladder smooth muscle; test: Rat urinary bladder smooth muscle test; conditions: 10^−11 to 10^−6 M
# Protocol: Female Wistar rats (250–300 g) were euthanized by CO2 asphyxiation followed by cervical dislocation under appropriate Home Office (UK) animal licenses. Full urinary bladder and ileum were carefully removed from the abdomen, then placed in cold Kreb's solution (118 mM NaCl, 4.7 mM KCl, 25 mM NaHCO3, 1.15 mM NaH2PO4, 2.5 mM CaCl2, 1.1 mM MgCl2, and 5.6 mM glucose), equilibrated with a carbogen mixture (95% O2, 5% CO2). The prepared smooth muscles linked with transducers were placed in 2 ml capacity organ baths with Kreb's solution flowing through at 2 ml/min and maintained at 37°C with constant bubbling of carbogen gas mixture (95% O2, […]) and equilibrated for 1 h prior to analysis. Then the viability of these smooth muscle preparations was tested by 60 mM KCl. Caeridins were tested at sequential molar concentrations in the range from 10^−6 M to 10^−11 M. Dose-response curves were depicted for each Caeridin on individual smooth muscle preparations (n = 5). Changes in tension of the smooth muscle preparations were detected by pressure transducers connected to a PowerLab System (ADInstruments Pty Ltd.). Data were recorded and calculated to obtain the means of responses and standard error of means (SEM). The dose-response curve of each Caeridin was established using best-fit algorithms through the data analysis package provided by GraphPad Prism (Version 6.0; GraphPad Software Inc., San Diego, CA, USA), and the comparative EC50 value for each peptide was depicted.
# [2] = test system: S. aureus NCTC10788; test: Antimicrobial test (broth microdilution); type: cell-based, Staphylococcus aureus
# Protocol: (§1) The antimicrobial activities were tested by the broth microdilution method and evaluated by the determination of MIC values against different tested microorganisms, the Gram-positive bacteria, S. aureus (NCTC 10788), E. faecalis (NCTC12697), and MRSA (NCTC 12493); the Gram-negative bacterium, E. coli (NCTC 10418); and the yeast, C. albicans (NCYC 1467). The microorganisms were cultured to their log phase in MHB and diluted to 5 × 10^5 CFU/ml then subsequently treated with peptide solutions of gradient concentrations. After incubation at 37°C overnight, the growth of microorganisms was detected at a wavelength of 550 nm using a Synergy HT plate reader (Biolise BioTek ELx808, Winooski, VT, USA). The MICs were determined as the lowest concentration of peptide where […].
# [3] = test system: MRSA NCTC12493; test: Antimicrobial test (broth microdilution); type: cell-based, methicillin-resistant S. aureus
# Protocol: as §1
# [4] = test system: E. faecalis NCTC12697; test: Antimicrobial test (broth microdilution); type: cell-based, Enterococcus faecalis
# Protocol: as §1
# [5] = test system: E. coli NCTC10418; test: Antimicrobial test (broth microdilution); type: cell-based, Escherichia coli
# Protocol: as §1
# [6] = test system: C. albicans NCYC1467; test: Antimicrobial test (broth microdilution); type: cell-based, Candida albicans
# Protocol: as §1
# [7] = MHB, 5 × 10^5 CFU/ml, 37°C overnight, 550 nm
substance,measurement,setting,value
GLFDIVGKLLGGLGL-NH2 [Caeridin-a1],smooth muscle activity (rat bladder),[1],did not show any smooth muscle activities
same,MBC,[2],16 µM
same,MIC,[2]; [7],8 µM
same,MBC,[3],32 µM
same,MIC,[3]; [7],16 µM
same,MBC,[4],64 µM
same,MIC,[4]; [7],32 µM
same,MBC,[5],64 µM
same,MIC,[5]; [7],32 µM
same,MFC,[6],64 µM
same,MIC,[6]; [7],32 µM
